# Measured values reported in patent publication US20210341496A1, “Systems and Methods for Detecting or Monitoring Insulin” (The Florida State University Research Foundation, Inc., priority 2020, published 2021).
# Test system: murine islets
# Assay: Synchronization of GSIS from grouped islets by periodic CCh pulses
# Format: cell-based
# Settings: 5 islets, constant 11 mM glucose, 30 s every 5 min
# Procedure: CCh, an M3R agonist, synchronizes glucose-induced islet activity as measured by synchronized oscillations of [Ca^2+]i levels. Because no recording of insulin release has been reported after delivery of CCh pulses, synchronized hormone secretion had not previously been verified. Using the newly-developed anisotropy method, it was tested whether GSIS from grouped islets can be entrained during periodic application of CCh.
# For this experiment, reagent reservoirs connected to inlets 1 and 2 contained 11 mM glucose and 10 μM CCh in 11 mM glucose, respectively. A group of 5 islets were loaded into the islet chamber that had been filled with 11 mM glucose. After sealing the chamber, islets were continuously perfused with constant 11 mM glucose from inlet 1. CCh pulses were generated by switching the flow from inlet 1 to inlet 2. Pulse profiles consisted of 5 pulses (denoted by ‘x’ in FIG. 10A and FIG. 10B) each delivered for 30 s every 5 min. Considering broadening of each pulse (FIG. 3C), islets were exposed to an effective [CCh] of 4.7 μM.
# In FIG. 10A and FIG. 10B, the glucose level remained constant at 11 mM. In the islet chamber during each experiment were 5 islets. In FIG. 10A, GSIS was synchronized by a train of 5 CCh pulses. Each 30 second pulse, ‘x’, was delivered every 5 minutes from 5 to 25 minutes. Numbered insulin peaks highlight oscillations likely stimulated by a CCh pulse. […]
smiles,measurement,setting,value
"C[N+](C)(C)CCOC(N)=O [CCh, carbachol]","insulin spikes after CCh pulses, average of final 3 spikes",5 pulses of 10 μM CCh (effective 4.7 μM),78±12 pg min^−1 islet^−1
same,synchronization of GSIS,train of 5 CCh pulses,synchronized
